“Also recorded” adds a separate entry of the source.
Test system: NCI-60 cell lines
Assay type: cell-based, human

## GLRVYEP
  Cell Line (NCI-60 cell line the peptide and its motif are associated with): PC3 Prostate

## AGGPSSY
  Cell Line the peptide is associated with (peptide recovered from phage library selection on this NCI-60 cell line): UO31 Renal

## DRQLAGR
  Cell Line the peptide is associated with (peptide recovered from phage library selection on this NCI-60 cell line): HS 578 T Breast

## AVGRGSG
  Cell Line with which the peptide (and its tripeptide motif) is associated: Hop-92-Lung

## LGGSRDL
  Cell Line (NCI-60 cell line the peptide is associated with): HCT-116 Colon

## VALGVSS
  Cell Line the peptide is associated with (peptide recovered from phage library selection on this NCI-60 cell line): T-47D Breast

## AGGFGVL
  Cell Line (NCI-60 cell line the peptide and its motif are associated with): IGROV1 Ovarian

## EGSGVDC
  Cell Line with which the peptide (and its tripeptide motif) is associated: RPMI-8226-Leukemia

## LTAAVMV
  Cell Line (NCI-60 cell line the peptide is associated with): SNB-75 CNS

## RSSPVWT
  Cell Line (NCI-60 cell line the peptide is associated with): SW620-Colon

## PRGRLFD
  Cell Line (NCI-60 cell line the peptide is associated with): HT-29 Colon

## GAVTSAD
  Cell Line (NCI-60 cell line the peptide and its motif are associated with): SK-MEL-2 Melanoma

## RVSSDPI
  Cell Line (NCI-60 cell line the peptide and its motif are associated with): SK-OV-3-3 Ovarian

## GVGGLSS
  Cell Line the peptide is associated with (peptide recovered from phage library selection on this NCI-60 cell line): HS 578 T Breast

## TAGGAVG
  Cell Line (NCI-60 cell line the peptide is associated with): SW620-Colon

## LAGRASE
  Cell Line (NCI-60 cell line the peptide and its motif are associated with): OVCAR-4 Ovarian

## WFGAVGL
  Cell Line with which the peptide (and its tripeptide motif) is associated: Molt-4-Leukemia

## GRPLGGR
  Cell Line (NCI-60 cell line the peptide is associated with): HCT-15 Colon

## HSESAAV
  Cell Line with which the peptide (and its tripeptide motif) is associated: Hop-62-Lung

## NPGLVWN
  Cell Line the peptide is associated with (peptide recovered from phage library selection on this NCI-60 cell line): MDA-MB-231 Breast

## LRIARGV
  Cell Line (NCI-60 cell line the peptide is associated with): COLO-205-Colon

## ATGSGSV
  Cell Line (NCI-60 cell line the peptide and its motif are associated with): PC3 Prostate

## GAVRARL
  Cell Line with which the peptide (and its tripeptide motif) is associated: SR Leukemia

## RARTGGS
  Cell Line (NCI-60 cell line the peptide is associated with): SNB-75 CNS

## FRASSEV
  Cell Line with which the peptide (and its tripeptide motif) is associated: Hop-62-Lung

## EVASGLV
  Cell Line (NCI-60 cell line the peptide and its motif are associated with): SK-MEL-2 Melanoma

## SSGSSNG
  Cell Line with which the peptide (and its tripeptide motif) is associated: K-562-Leukemia

## GGAGSRR
  Cell Line the peptide is associated with (peptide recovered from phage library selection on this NCI-60 cell line): UO31 Renal

## RLSSAPS
  Cell Line (NCI-60 cell line the peptide and its motif are associated with): M14 Melanoma

## RGVGWAK
  Cell Line with which the peptide (and its tripeptide motif) is associated: H322-Lung

## LLRLSLA
  Cell Line with which the peptide (and its tripeptide motif) is associated: H23-Lung

## LYLLSSA
  Cell Line (NCI-60 cell line the peptide and its motif are associated with): SK-MEL-5 Melanoma

## VVASLPH
  Cell Line (NCI-60 cell line the peptide is associated with): HT-29 Colon

## HAELVSL
  Cell Line (NCI-60 cell line the peptide is associated with): KM-12C Colon

## AGDRGVA
  Cell Line (NCI-60 cell line the peptide and its motif are associated with): DU-145 Prostate

## RDGRGAG
  Cell Line (NCI-60 cell line the peptide is associated with): SF-295 CNS

## EMGSSRG
  Cell Line (NCI-60 cell line the peptide is associated with): HT-29 Colon

## VRVSGLT
  Cell Line (NCI-60 cell line the peptide and its motif are associated with): SK-MEL-5 Melanoma

## EGLVVFE
  Cell Line (NCI-60 cell line the peptide is associated with): SNB-19 CNS; also recorded: SF-539 CNS

## RGSVGPS
  Cell Line (NCI-60 cell line the peptide is associated with): SW620-Colon

## LIGRASM
  Cell Line (NCI-60 cell line the peptide and its motif are associated with): SK-OV-3-3 Ovarian

## GSVVSSW
  Cell Line the peptide is associated with (peptide recovered from phage library selection on this NCI-60 cell line): ACHN Renal

## RVSGDGK
  Cell Line (NCI-60 cell line the peptide and its motif are associated with): SK-OV-3-3 Ovarian

## ASAVSGR
  Cell Line (NCI-60 cell line the peptide is associated with): HT-29 Colon

## RSSGLGF
  Cell Line with which the peptide (and its tripeptide motif) is associated: Hop-62-Lung

## TRRGRLD
  Cell Line the peptide is associated with (peptide recovered from phage library selection on this NCI-60 cell line): SN12C Renal

## PRVSALV
  Cell Line the peptide is associated with (peptide recovered from phage library selection on this NCI-60 cell line): MDA-MB-231 Breast

## FMTYGSG
  Cell Line (NCI-60 cell line the peptide and its motif are associated with): OVCAR-4 Ovarian

## ADLGAGW
  Cell Line (NCI-60 cell line the peptide and its motif are associated with): OVCAR-4 Ovarian

## SGSRVSL
  Cell Line with which the peptide (and its tripeptide motif) is associated: HL-60-Leukemia

## VWLRGST
  Cell Line (NCI-60 cell line the peptide and its motif are associated with): M14 Melanoma

## RGGSDEA
  Cell Line the peptide is associated with (peptide recovered from phage library selection on this NCI-60 cell line): BT-549 Breast

## SAGGWCA
  Cell Line (NCI-60 cell line the peptide is associated with): LOX-IMVI Melanoma

## GRGLRTD
  Cell Line (NCI-60 cell line the peptide is associated with): SF-295 CNS

## AARGVMV
  Cell Line (NCI-60 cell line the peptide and its motif are associated with): SK-MEL-2 Melanoma

## RPARGAF
  Cell Line the peptide is associated with (peptide recovered from phage library selection on this NCI-60 cell line): ACHN Renal

## VDLRSAF
  Cell Line the peptide is associated with (peptide recovered from phage library selection on this NCI-60 cell line): ACHN Renal

## ARGSWRE
  Cell Line the peptide is associated with (peptide recovered from phage library selection on this NCI-60 cell line): TK-10 Renal

## WAGLSRP
  Cell Line the peptide is associated with (peptide recovered from phage library selection on this NCI-60 cell line): SN12C Renal

## RNSRAGL
  Cell Line the peptide is associated with (peptide recovered from phage library selection on this NCI-60 cell line): UO31 Renal

## TAAGSSF
  Cell Line the peptide is associated with (peptide recovered from phage library selection on this NCI-60 cell line): HS 578 T Breast

## RSTLGPS
  Cell Line (NCI-60 cell line the peptide is associated with): HT-29 Colon

## PNSAGSV
  Cell Line the peptide is associated with (peptide recovered from phage library selection on this NCI-60 cell line): SN12C Renal

## LYGVRYG
  Cell Line with which the peptide (and its tripeptide motif) is associated: RPMI-8226-Leukemia

## GRVTLES
  Cell Line (NCI-60 cell line the peptide and its motif are associated with): OVCAR-3 Ovarian

## SRVSNPS
  Cell Line (NCI-60 cell line the peptide and its motif are associated with): SK-MEL-2 Melanoma

## GRLSFGV
  Cell Line the peptide is associated with (peptide recovered from phage library selection on this NCI-60 cell line): ACHN Renal

## RLRVSVR
  Cell Line the peptide is associated with (peptide recovered from phage library selection on this NCI-60 cell line): CAIK-1 Renal

## VHKRAVL
  Cell Line the peptide is associated with (peptide recovered from phage library selection on this NCI-60 cell line): UO31 Renal

## RGRGSTL
  Cell Line the peptide is associated with (peptide recovered from phage library selection on this NCI-60 cell line): MDA-MB-435-Breast

## WIWRAVS
  Cell Line (NCI-60 cell line the peptide is associated with): SF-268 CNS

## FIAGGVG
  Cell Line the peptide is associated with (peptide recovered from phage library selection on this NCI-60 cell line): ACHN Renal

## LRRSSFS
  Cell Line with which the peptide (and its tripeptide motif) is associated: K-562-Leukemia

## RAVCEWD
  Cell Line the peptide is associated with (peptide recovered from phage library selection on this NCI-60 cell line): CAIK-1 Renal

## SGGDGSV
  Cell Line (NCI-60 cell line the peptide is associated with): SNB-75 CNS

## ARYSLRS
  Cell Line (NCI-60 cell line the peptide and its motif are associated with): 786-0 Renal

## FTRGGLS
  Cell Line (NCI-60 cell line the peptide is associated with): SNB-75 CNS

## FWISRAS
  Cell Line with which the peptide (and its tripeptide motif) is associated: RPMI-8226-Leukemia

## GDRRLVS
  Cell Line the peptide is associated with (peptide recovered from phage library selection on this NCI-60 cell line): NCI/ADR-RES Breast

## WAGSNYS
  Cell Line (NCI-60 cell line the peptide is associated with): SNB-75 CNS

## GGFTGGL
  Cell Line (NCI-60 cell line the peptide is associated with): SF-295 CNS

## WGRLEST
  Cell Line the peptide is associated with (peptide recovered from phage library selection on this NCI-60 cell line): BT-549 Breast

## FLHMRLS
  Cell Line (NCI-60 cell line the peptide and its motif are associated with): M14 Melanoma

## GLGVSGV
  Cell Line with which the peptide (and its tripeptide motif) is associated: Hop-62-Lung

## RRGSLMF
  Cell Line (NCI-60 cell line the peptide is associated with): SW620-Colon

## SGVSGLS
  Cell Line with which the peptide (and its tripeptide motif) is associated: EKVX-Lung

## GAGSGRT
  Cell Line the peptide is associated with (peptide recovered from phage library selection on this NCI-60 cell line): HS 578 T Breast

## ARGVSAP
  Cell Line (NCI-60 cell line the peptide is associated with): KM-12C Colon

## HSGVSHG
  Cell Line with which the peptide (and its tripeptide motif) is associated: RPMI-8226-Leukemia

## GAVNTPA
  Cell Line (NCI-60 cell line the peptide and its motif are associated with): SK-MEL-2 Melanoma

## VRLSGRA
  Cell Line (NCI-60 cell line the peptide is associated with): SNB-19 CNS; also recorded: SF-539 CNS

## LLLLSGS
  Cell Line the peptide is associated with (peptide recovered from phage library selection on this NCI-60 cell line): RXF393 Renal

## SLGGRTF
  Cell Line (NCI-60 cell line the peptide is associated with): SNB-75 CNS

## VLASLSG
  Cell Line (NCI-60 cell line the peptide and its motif are associated with): IGROV1 Ovarian

## GRLWSRV
  Cell Line with which the peptide (and its tripeptide motif) is associated: Hop-92-Lung

## GRGDRGV
  Cell Line (NCI-60 cell line the peptide and its motif are associated with): SK-MEL-28 Melanoma

## GLSRGVL
  Cell Line the peptide is associated with (peptide recovered from phage library selection on this NCI-60 cell line): ACHN Renal

## SSRPGSS
  Cell Line with which the peptide (and its tripeptide motif) is associated: Hop-62-Lung

## NMGAVGS
  Cell Line (NCI-60 cell line the peptide and its motif are associated with): DU-145 Prostate

## FHFGGSG
  Cell Line (NCI-60 cell line the peptide and its motif are associated with): OVCAR-5 Ovarian

## YSQRSSL
  Cell Line with which the peptide (and its tripeptide motif) is associated: Hop-62-Lung

## GAGGGVG
  Cell Line the peptide is associated with (peptide recovered from phage library selection on this NCI-60 cell line): MDA-MB-435-Breast

## GAVLTSC
  Cell Line the peptide is associated with (peptide recovered from phage library selection on this NCI-60 cell line): BT-549 Breast

## FSSKRGV
  Cell Line with which the peptide (and its tripeptide motif) is associated: RPMI-8226-Leukemia

## PSLLRGF
  Cell Line (NCI-60 cell line the peptide and its motif are associated with): UACC62 Melanoma

## DEGLRSR
  Cell Line (NCI-60 cell line the peptide is associated with): HCT-116 Colon

## QARGSWL
  Cell Line (NCI-60 cell line the peptide and its motif are associated with): OVCAR-4 Ovarian

## LGMGRGV
  Cell Line the peptide is associated with (peptide recovered from phage library selection on this NCI-60 cell line): SN12C Renal

## SGGLHEG
  Cell Line with which the peptide (and its tripeptide motif) is associated: SR Leukemia

## VGVMGGR
  Cell Line the peptide is associated with (peptide recovered from phage library selection on this NCI-60 cell line): CAIK-1 Renal

## WTKRGSV
  Cell Line with which the peptide (and its tripeptide motif) is associated: K-562-Leukemia

## SRYGLRR
  Cell Line with which the peptide (and its tripeptide motif) is associated: RPMI-8226-Leukemia

## HSRAVAP
  Cell Line with which the peptide (and its tripeptide motif) is associated: SR Leukemia

## SGGLVLT
  Cell Line with which the peptide (and its tripeptide motif) is associated: Hop-92-Lung

## QMQGRAV
  Cell Line with which the peptide (and its tripeptide motif) is associated: H226-Lung

## LGGLGLS
  Cell Line (NCI-60 cell line the peptide and its motif are associated with): OVCAR-5 Ovarian

## LPRRAVF
  Cell Line (NCI-60 cell line the peptide and its motif are associated with): DU-145 Prostate

## LSLRGGL
  Cell Line the peptide is associated with (peptide recovered from phage library selection on this NCI-60 cell line): MDA-MB-231 Breast

## AFKTGGS
  Cell Line (NCI-60 cell line the peptide and its motif are associated with): M14 Melanoma

## DAGRTID
  Cell Line with which the peptide (and its tripeptide motif) is associated: Hop-62-Lung

## LRGSHVA
  Cell Line the peptide is associated with (peptide recovered from phage library selection on this NCI-60 cell line): ACHN Renal

## NVGGGRF
  Cell Line the peptide is associated with (peptide recovered from phage library selection on this NCI-60 cell line): NCI/ADR-RES Breast

## VLVEGAV
  Cell Line the peptide is associated with (peptide recovered from phage library selection on this NCI-60 cell line): TK-10 Renal

## GGRVLGQ
  Cell Line (NCI-60 cell line the peptide and its motif are associated with): OVCAR-4 Ovarian

## LRSSLVS
  Cell Line the peptide is associated with (peptide recovered from phage library selection on this NCI-60 cell line): RXF393 Renal

## AGVFAVS
  Cell Line with which the peptide (and its tripeptide motif) is associated: HL-60-Leukemia

## WGATAGG
  Cell Line with which the peptide (and its tripeptide motif) is associated: Hop-62-Lung

## YVRIGRV
  Cell Line (NCI-60 cell line the peptide is associated with): HCT-15 Colon

## DAGGMDL
  Cell Line (NCI-60 cell line the peptide is associated with): HT-29 Colon

## WRVRSSG
  Cell Line (NCI-60 cell line the peptide is associated with): HCT-15 Colon

## SYGLVLP
  Cell Line with which the peptide (and its tripeptide motif) is associated: Hop-92-Lung

Source: US7781565B2 (priority 2006, dated 2010)
